Experimental data taken from PubChem BioAssay (NCI).
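Protocol summary: plate cells (96-well), add compound at 5 concentrations, incubate 48 h, interpolate endpoints linearly. GI50 marks 50% less growth. TGI denotes the concentration required for complete inhibition of growth.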

Columns and labels:
Assay in all cases: DTP human tumour cell line panel, 48 h
[1] = tested on: COLO 205 colon
[2] = tested on: PC-3 prostate
[3] = tested on: MDA-MB-435
[4] = tested on: SN12C renal
[5] = tested on: UACC-62 melanoma
[6] = tested on: SK-MEL-28 melanoma
[7] = tested on: HOP-62 NSCLC
[8] = tested on: TK-10 renal
[9] = tested on: SNB-19 CNS
[10] = tested on: HL-60(TB) leukemia
[11] = tested on: OVCAR-8 ovarian
[12] = tested on: A549 NSCLC
[13] = tested on: RXF 393 renal
[14] = tested on: HCC-2998 colon
[15] = tested on: 786-0 renal
[16] = tested on: MALME-3M melanoma
[17] = tested on: UACC-257 melanoma
[18] = tested on: SF-539 CNS
[19] = tested on: CAKI-1 renal
[20] = tested on: U251 CNS
[21] = tested on: OVCAR-5 ovarian
[22] = tested on: SK-OV-3 ovarian
[23] = tested on: HT29 colon
[24] = tested on: ACHN renal
[25] = tested on: MCF7 breast
[26] = tested on: HOP-92 NSCLC
[27] = tested on: CCRF-CEM leukemia
[28] = tested on: MOLT-4 leukemia
[29] = tested on: SNB-75 CNS
[30] = tested on: MDA-MB-231 breast
[31] = tested on: UO-31 renal
[32] = tested on: NCI/ADR-RES ovarian
[33] = tested on: M14 melanoma
[34] = tested on: OVCAR-4 ovarian
[35] = tested on: NCI-H522 lung
[36] = tested on: BT-549 breast
[37] = tested on: RPMI-8226 leukemia
[38] = tested on: LOX IMVI melanoma
[39] = tested on: T-47D breast
[40] = tested on: HCT-15 colon
[41] = tested on: NCI-H23 lung
[42] = tested on: SK-MEL-5 melanoma
[43] = tested on: IGROV1 ovarian
[44] = tested on: K-562 leukemia
[45] = tested on: HCT-116 colon
[46] = tested on: SK-MEL-2 melanoma

N#CCCN1C/C(=C/c2ccc(Br)cc2)C(=O)/C(=C/c2ccc(Br)cc2)C1
GI50 [1]: 1570 nM
TGI [1]: 2970 nM
GI50 [2]: 1510 nM
TGI [2]: 7540 nM
GI50 [3]: 2240 nM
TGI [3]: 6830 nM
GI50 [4]: 1880 nM
TGI [4]: 4600 nM
GI50 [5]: 1930 nM
TGI [5]: 4520 nM
GI50 [6]: 1770 nM
TGI [6]: 3510 nM
GI50 [7]: 1660 nM
TGI [7]: 3570 nM
GI50 [8]: 2450 nM
TGI [8]: 5440 nM
GI50 [9]: 1590 nM
TGI [9]: 3760 nM
GI50 [10]: 2550 nM
TGI [10]: > 100000 nM
GI50 [11]: 1140 nM
TGI [11]: > 100000 nM
GI50 [12]: 2380 nM
TGI [12]: 26300 nM
GI50 [13]: 1550 nM
TGI [13]: 3040 nM
GI50 [14]: 1850 nM
TGI [14]: 3310 nM
GI50 [15]: 1380 nM
TGI [15]: 2840 nM
GI50 [16]: 2230 nM
TGI [16]: 5290 nM
GI50 [17]: 2090 nM
TGI [17]: 5320 nM
GI50 [18]: 1610 nM
TGI [18]: 2990 nM
GI50 [19]: 2780 nM
TGI [19]: > 100000 nM
GI50 [20]: 409 nM
TGI [20]: 1580 nM
GI50 [21]: 1920 nM
TGI [21]: 3970 nM
GI50 [22]: 2930 nM
TGI [22]: 8100 nM
GI50 [23]: 338 nM
TGI [23]: 1240 nM
GI50 [24]: 1760 nM
TGI [24]: 3370 nM
GI50 [25]: 764 nM
TGI [25]: 10400 nM
GI50 [26]: 1710 nM
TGI [26]: 4890 nM
GI50 [27]: 341 nM
TGI [27]: > 100000 nM
GI50 [28]: 2850 nM
TGI [28]: > 100000 nM
GI50 [29]: 4350 nM
TGI [29]: 31400 nM
GI50 [30]: 2950 nM
TGI [30]: 11400 nM
GI50 [31]: 1470 nM
TGI [31]: 2920 nM
GI50 [32]: 3470 nM
TGI [32]: > 100000 nM
GI50 [33]: 1990 nM
TGI [33]: 4150 nM
GI50 [34]: 2690 nM
TGI [34]: > 100000 nM
GI50 [35]: 1890 nM
TGI [35]: 3810 nM
GI50 [36]: 1560 nM
TGI [36]: 3040 nM
GI50 [37]: 262 nM
TGI [37]: > 100000 nM
GI50 [38]: 512 nM
TGI [38]: 1760 nM
GI50 [39]: 4360 nM
TGI [39]: 28200 nM
GI50 [40]: 1070 nM
TGI [40]: 2900 nM
GI50 [41]: 2640 nM
TGI [41]: 7580 nM
GI50 [42]: 1580 nM
TGI [42]: 2930 nM
GI50 [43]: 2020 nM
TGI [43]: 5350 nM
GI50 [44]: 454 nM
TGI [44]: > 100000 nM
GI50 [45]: 181 nM
TGI [45]: 345 nM
GI50 [46]: 2600 nM
TGI [46]: 6540 nM
